# In ChEMBL document CHEMBL1152643, “Tedanol: a potent anti-inflammatory ent-pimarane diterpene from the Caribbean Sponge Tedania ignis” (Bioorg Med Chem, 2009):
# Active and inactive are the calls of the source. No cut-off for these calls is given here.
# Tests used:
# Format in all cases: functional, organism-based
# [1] = tested on: Mus musculus; assay: Antiinflammatory activity against carrageenan-induced inflammation in CD1 mouse assessed as inhibition of MPO activity at 1 mg/kg, ip after 48 hrs; design: dose 1 mg/kg
# [2] = tested on: Mus musculus; assay: Antiinflammatory activity in ip dosed CD1 mouse assessed as inhibition of carrageenan-induced paw edema by hydroplethismometer
# [3] = tested on: Mus musculus; assay: Antiinflammatory activity against carrageenan-induced inflammation in CD1 mouse assessed as inhibition of MPO activity at 1 mg/kg, ip after 4 hrs; design: dose 1 mg/kg
# [4] = tested on: Mus musculus; assay: Antiinflammatory activity against carrageenan-induced inflammation in CD1 mouse assessed as inhibition of COX1 activity in second edema phase at 1 mg/kg, ip after 24 to 72 hrs by Western blot; design: dose 1 mg/kg
# [5] = tested on: Mus musculus; assay: Antiinflammatory activity against carrageenan-induced inflammation in CD1 mouse assessed as inhibition of iNOS expression at 1 mg/kg, ip after 48 hrs by Western blot; design: dose 1 mg/kg
# [6] = tested on: Mus musculus; assay: Antiinflammatory activity against carrageenan-induced inflammation in CD1 mouse assessed as inhibition of COX2 activity in early edema phase at 1 mg/kg, ip after 2 to 4 hrs by Western blot; design: dose 1 mg/kg
# [7] = tested on: Mus musculus; assay: Antiinflammatory activity against carrageenan-induced inflammation in CD1 mouse assessed as inhibition of COX1 activity in second edema phase at 1 mg/kg, ip after 2 to 4 hrs by Western blot; design: dose 1 mg/kg
# [8] = tested on: Mus musculus; assay: Antiinflammatory activity against carrageenan-induced inflammation in CD1 mouse assessed as inhibition of iNOS expression at 1 mg/kg, ip after 2 hrs by Western blot; design: dose 1 mg/kg
# [9] = tested on: Mus musculus; assay: Antiinflammatory activity against carrageenan-induced inflammation in CD1 mouse assessed as inhibition of COX2 activity in second edema phase at 1 mg/kg, ip after 24 to 72 hrs by Western blot; design: dose 1 mg/kg
smiles,measurement,setting,value
CC1(C)[C@H](Br)CC[C@@]2(C)C3=CC[C@](C)([C@@H](Br)COS(=O)(=O)O)C[C@H]3[C@H](O)C[C@H]12,Activity,[1],Active
same,Activity,[2],Dose-dependent effect
same,Activity,[3],Active
same,Activity,[4],Active
same,Activity,[5],Active
same,Activity,[6],Active
same,Activity,[7],inactive
same,Activity,[8],Active
same,Activity,[9],Active
